Measured values published in ChEMBL document CHEMBL1127232, “Synthesis and vasorelaxant activity of N-imino-2-(benzopyran-4-yl)pyridine K+ channel openers” (Bioorg Med Chem Lett, 1994).

How the values were obtained:
[1] = organism: Rattus norvegicus; test: Negative logarithm of the molar concentration required to relax rat aorta precontracted with 30 mM KCL by 50% of intrinsic activity; type: functional
[2] = organism: Rattus norvegicus; test: Intrinsic activity in rat aorta was determined; type: functional

| SMILES | EC50 [1] | Intrinsic activity [2] |
| --- | --- | --- |
| CC1(C)C=C(c2cccc[n+]2[O-])c2cc(C#N)ccc2O1 | 24.5 nM | 78.2% |
| N#C[N-][n+]1ccccc1C1=CC(CF)(CF)Oc2ccc(C#N)cc21 | 51.3 nM | 76.9% |
| O=[N+]([O-])[N-][n+]1ccccc1C1=CC(CF)(CF)Oc2ccc([N+](=O)[O-])cc21 | 1000 nM | 98.5% |
| CC1(C)Oc2ccc(C#N)cc2[C@@H](N2CCCC2=O)[C@@H]1O [LEVCROMAKALIM] | 162 nM | 72.5% |
| CS(=O)(=O)[N-][n+]1ccccc1C1=CC(CF)(CF)Oc2ccc([N+](=O)[O-])cc21 | 3020 nM | 74.2% |
| O=C([N-][n+]1ccccc1C1=CC(CF)(CF)Oc2ccc([N+](=O)[O-])cc21)c1ccccc1 | > 10000 nM |  |
| CC1(C)C=C(c2cccc[n+]2[N-]C#N)c2cc(C#N)ccc2O1 | 97.7 nM | 63.2% |
| CC(=O)[N-][n+]1ccccc1C1=CC(CF)(CF)Oc2ccc([N+](=O)[O-])cc21 | > 10000 nM |  |
| O=C([N-][n+]1ccccc1C1=CC(CF)(CF)Oc2ccc([N+](=O)[O-])cc21)Nc1ccccc1 | 9120 nM | 89.5% |
| N#C[N-][n+]1ccccc1C1=CC(CF)(CF)Oc2ccc(C(F)(F)C(F)(F)C(F)(F)F)cc21 | 17.8 nM | 74.6% |

These reach a lower EC50 [1]. Values come first.

| EC50 [1] | SMILES | Intrinsic activity [2] |
| --- | --- | --- |
| 9.55 nM | N#C[N-][n+]1ccccc1C1=CC(CF)(CF)Oc2ccc(C(F)(F)F)cc21 | 62.3% |
| 4.57 nM | N#C[N-][n+]1ccccc1C1=CC(CF)(CF)Oc2ccc([N+](=O)[O-])cc21 | 72.7% |
| 16.6 nM | N#Cc1ccc2c(c1)C(c1cccc[n+]1[O-])=CC(CF)(CF)O2 | 71.1% |
| 2.95 nM | N#C[N-][n+]1ccccc1C1=CC(CF)(CF)Oc2ccc(C(F)(F)C(F)(F)F)cc21 | 71.9% |
| 1.74 nM | O=[N+]([O-])c1ccc2c(c1)C(c1cccc[n+]1[O-])=CC(CF)(CF)O2 | 66.3% |
